From patent US10112918B2, “15-oxospiramilactone derivatives, preparation method and uses thereof” (Kunming Institute of Botany, The Chinese Academy of Sciences, priority 2013, dated 2018)

Tested on: HL-60 (human promyelocytic leukemia cells)
Experiment: MTT inhibition of tumor cell growth, HL-60
Assay type: cell-based
Conditions: Homo sapiens, HL-60, 48 h
Summary of the method: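 Compound exposure lasts 48 h at 37° C on cells plated at 5000-10000 per well in serum-containing medium. Viability is read by MTT reduction at 595 nm, and IC50 is computed with the two-point Reed and Muench method.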

Measured: IC50

C=C1C(=O)[C@]23CC[C@H]1CC2[C@@]12CCC[C@@](C)(COC1=O)C2C[C@H]3O (stereo partly drawn) [Compound 1, 15-oxospiramilactone]
6.36 µM: Table 1, 7-hydroxy derivatives of S-3 | Table 2, derivatives having potential Michael reaction acceptor | Table 3, single Michael reaction acceptor, modified lactonic ring | Table 4, derivatives obtained by reduction of the lactonic ring | Table 5, derivatives having double Michael reaction acceptor | Table 7 (first), alkaloid derivatives
